Reference: patent publication US10532984B2, “Pyridonecarboxylic acid derivative or salt thereof” (priority 2016, dated 2020)
Converted amounts (≈) assume the structure as drawn.

Legend:
P. aeruginosa 2014-17 = experiment: Combined antibacterial effect with drug efflux pump inhibitor PAβN, broth microdilution MIC; format: cell-based; conditions: for MIC value P. aeruginosa 2014-17 PAβN +: P. aeruginosa 2014-17, with PAβN 50 μg/mL; for MIC value P. aeruginosa 2014-17 PAβN −: P. aeruginosa 2014-17, without PAβN
Method: (§1) The method used was a broth microdilution method according to the standard method of the Japanese Society of Chemotherapy (Chemotherapy, 38 (1), 102, 1990). In the condition which added H-Phe-Arg-βNA, 2HCl (PAβN) (50 μg/mL) as drug efflux pump inhibitor, the minimum inhibitory concentrations (MIC: μg/mL) was measured. The minimum inhibitory concentrations (MIC: μg/mL) of the conventional antimicrobial agents levofloxacin and cefepime as a positive control compound and a negative control compound for the evaluation were also measured similarly. P. aeruginosa is a clinical isolate given by […] Medical Center.

P. aeruginosa PA01 = experiment: as above; format: cell-based; conditions: for MIC value P. aeruginosa PA01 PAβN +: P. aeruginosa PA01, with PAβN 50 μg/mL; for MIC value P. aeruginosa PA01 PAβN −: P. aeruginosa PA01, without PAβN
Method: as §1

P. aeruginosa 08-05 = experiment: as above; format: cell-based; conditions: for P. aeruginosa 08-05 MIC ratio: P. aeruginosa 08-05, PAβN(−) MIC/PAβN(+) MIC; for MIC value P. aeruginosa 08-05 PAβN +: P. aeruginosa 08-05, with PAβN 50 μg/mL; for MIC value P. aeruginosa 08-05 PAβN −: P. aeruginosa 08-05, without PAβN
Method: as §1

P. aeruginosa 2014-16 = experiment: Antibacterial effect, MIC by standard method of Japanese Society of Chemotherapy; format: cell-based; conditions: Pseudomonas aeruginosa, 201416; P. aeruginosa 2014-16, clinical isolate
Method: (§2) The minimum inhibitory concentrations (MIC: μg/mL) of the compounds set forth in Table 1 were measured according to the standard method of Japanese Society of Chemotherapy (Japanese Journal of Chemotherapy, 56 (1), 49, 2008). […] P. aeruginosa is a clinical isolate given by Kameda Medical Center. C. difficile is a clinical isolate purchased from International Health Management Associates, Inc. (IHMA).

C. difficile 2015-13 = experiment: as above; format: cell-based; conditions: Clostridioides difficile, 201513; C. difficile 2015-13, clinical isolate
Method: as §2

C. difficile 2015-12 = experiment: as above; format: cell-based; conditions: Clostridioides difficile, 201512; C. difficile 2015-12, clinical isolate
Method: as §2

MRSA9532 = experiment: as above; format: cell-based, methicillin-resistant Staphylococcus aureus; conditions: Staphylococcus aureus
Method: as §2

MRSA9522 = experiment: as above; format: cell-based, methicillin-resistant Staphylococcus aureus; conditions: Staphylococcus aureus
Method: as §2

Compound	MIC value P. aeruginosa 2014-17 PAβN + (P. aeruginosa 2014-17)	MIC value P. aeruginosa 2014-17 PAβN − (P. aeruginosa 2014-17)	MIC value P. aeruginosa PA01 PAβN + (P. aeruginosa PA01)	MIC value P. aeruginosa PA01 PAβN − (P. aeruginosa PA01)	P. aeruginosa 08-05 MIC ratio (P. aeruginosa 08-05)	MIC value P. aeruginosa 08-05 PAβN + (P. aeruginosa 08-05)	MIC value P. aeruginosa 08-05 PAβN − (P. aeruginosa 08-05)	MIC (P. aeruginosa 2014-16)	MIC (C. difficile 2015-13)	MIC (C. difficile 2015-12)	MIC (MRSA9532)	MIC (MRSA9522)
C[C@H]1COc2c(N3CCN(C)CC3)c(F)cc3c(=O)c(C(=O)O)cn1c23 [Levofloxacin, levofloxacin, reference compound]	1 µg/mL	32 µg/mL	0.06 µg/mL	0.5 µg/mL	32	0.12 µg/mL	4 µg/mL	> 128 µg/mL	> 128 µg/mL	> 128 µg/mL	> 128 µg/mL	> 128 µg/mL
CNC1CN(c2c(F)c(C)c3c(=O)c(C(=O)O)cn(-c4cc(N)c(F)cc4CO)c3c2Cl)C1 [Example 104, 1-[5-Amino-4-fluoro-2-(hydroxymethyl)phenyl]-8-chloro-6-fluoro-5-methyl-7-(3-methylaminoazetidin-1-yl)-4-oxo-1,4-dihydroquinoline-3-carboxylic acid]	0.25 µg/mL	4 µg/mL	0.016 µg/mL	0.12 µg/mL	8	0.06 µg/mL	0.5 µg/mL	2 µg/mL (≈ 4.18 µM)	0.5 µg/mL (≈ 1.04 µM)	1 µg/mL (≈ 2.09 µM)	1 µg/mL (≈ 2.09 µM)	1 µg/mL (≈ 2.09 µM)
CNC1CN(c2c(F)cc3c(=O)c(C(=O)O)cn(-c4cc(N)c(F)cc4CO)c3c2C)C1 [Example 70]	4 µg/mL	16 µg/mL	0.25 µg/mL	0.25 µg/mL	4	0.25 µg/mL	1 µg/mL	–	–	–	–	–
O=C(O)c1cn(C2CC2)c2cc(N3CCNCC3)c(F)cc2c1=O [Ciprofloxacin, ciprofloxacin]	–	–	–	–	–	–	–	–	–	–	> 128 µg/mL	128 µg/mL (≈ 386 µM)
Cc1c(F)c(N2CC(N)C2)c(C)c2c1c(=O)c(C(=O)O)cn2-c1cc(N)c(F)cc1CO [Example 100, 7-(3-Aminoazetidin-1-yl)-1-[5-amino-4-fluoro-2-(hydroxymethyl)phenyl]-5,8-dimethyl-6-fluoro-4-oxo-1,4-dihydroquinoline-3-carboxylic acid]	0.25 µg/mL	2 µg/mL	0.016 µg/mL	0.12 µg/mL	8	0.06 µg/mL	0.5 µg/mL	–	–	–	–	–
Nc1cc(-n2cc(C(=O)O)c(=O)c3cc(F)c(N4CC(N)C4)c(Cl)c32)c(F)cc1F [Comparative Compound 1, 7-(3-Aminoazetidin-1-yl)-1-(5-amino-2,4-difluorophenyl)-8-chloro-6-fluoro-4-oxo-1,4-dihydroquinoline-3-carboxylic acid]	–	–	–	–	–	–	–	8 µg/mL (≈ 18.2 µM)	8 µg/mL (≈ 18.2 µM)	16 µg/mL (≈ 36.5 µM)	4 µg/mL (≈ 9.12 µM)	4 µg/mL (≈ 9.12 µM)
CO/N=C(\C(=O)N[C@@H]1C(=O)N2C(C(=O)[O-])=C(C[N+]3(C)CCCC3)CS[C@H]12)c1csc(N)n1 [Cefepime, cefepime, reference compound]	16 µg/mL	64 µg/mL	0.5 µg/mL	1 µg/mL	4	2 µg/mL	8 µg/mL	–	–	–	–	–
Cc1c(F)c(N2CC(O)C2)c(Cl)c2c1c(=O)c(C(=O)O)cn2-c1cc(N)c(F)cc1CO [Example 113, 1-[5-Amino-4-fluoro-2-(hydroxymethyl)phenyl]-8-chloro-6-fluoro-7-(3-hydroxyazetidin-1-yl)-5-methyl-4-oxo-1,4-dihydroquinoline-3-carboxylic acid]	–	–	–	–	–	–	–	4 µg/mL (≈ 8.59 µM)	0.06 µg/mL (≈ 0.129 µM)	0.12 µg/mL (≈ 0.258 µM)	1 µg/mL (≈ 2.15 µM)	1 µg/mL (≈ 2.15 µM)
CNC1CN(c2c(F)cc3c(=O)c(C(=O)O)cn(-c4cc(N)c(F)cc4F)c3c2Cl)C1 [Comparative Compound 2, 1-(5-amino-2,4-difluorophenyl)-8-chloro-6-fluoro-7-(3-methylaminoazetidin-1-yl)-4-oxo-1,4-dihydroquinoline-3-carboxylic acid]	–	–	–	–	–	–	–	16 µg/mL (≈ 35.3 µM)	4 µg/mL (≈ 8.83 µM)	8 µg/mL (≈ 17.7 µM)	2 µg/mL (≈ 4.42 µM)	1 µg/mL (≈ 2.21 µM)
